Like-named read-outs stand apart in the source and are kept apart here.
Assays:
[1] = system: Phytophthora infestans (PHYTIN); test: microbe, parasite or virus in culture; assay type: cell-based
Septoria tritici—SEPTTR = test: Leaf Blotch of Wheat, in vivo whole plant, 24 Hour Protectant; conditions: inoculated after 24 hours; for pest or weed control at 100 ppm: Zymoseptoria tritici, read-out: SEPTTR in vivo 1 Day Protectant
[2] = system: Stagonospora nodorum (Leptosphaeria nodorum—LEPTNO); test: Inhibition of in vitro fungal growth, LEPTNO; assay type: cell-based; parameters: inhibition of growth: dose or concentration left out as unconfirmed
[3] = system: Mycosphaerella graminicola (Septoria tritici—SEPTTR); test: Inhibition of in vitro fungal growth, SEPTTR; assay type: cell-based; parameters: inhibition of growth: dose or concentration left out as unconfirmed
[4] = system: Puccinia recondita—PUCCRT; test: Brown Rust of Wheat, in vivo whole plant, 24 Hour Protectant; conditions: inoculated after 24 hours; for pest or weed control at 100 ppm: Puccinia, read-out: PUCCRT in vivo 1 Day Protectant
Ustilago maydis (USTIMA) = test: microbe, parasite or virus in culture; assay type: cell-based
Erysiphe graminis—ERYSGT = test: Powdery Mildew of Wheat, in vivo whole plant, 24 Hour Protectant; conditions: for pest or weed control at 100 ppm: Erysiphe, in Triticum aestivum, 24 h, read-out: ERYSGT in vivo 1 Day Protectant
[5] = system: Leptosphaeria nodorum—LEPTNO; test: Glume Blotch of Wheat, in vivo whole plant, 24 Hour Protectant; conditions: inoculated after 24 hours; for pest or weed control at 100 ppm: Leptosphaeria, 24 h, read-out: LEPTNO in vivo 1 Day Protectant
[6] = system: Magnaporthe grisea (Pyricularia oryzae—PYRIOR); test: microbe, parasite or virus in culture; assay type: cell-based
[7] = system: Rhizoctonia solani (RHIZSO); test: microbe, parasite or virus in culture; assay type: cell-based
[8] = system: Phytophthora infestans—PHYTIN; test: whole plant or invertebrate; assay type: in vivo; conditions: for pest or weed control at 100 ppm: Phytophthora, in Solanum lycopersicum, 24 h, read-out: PHYTIN in vivo 1 Day Protectant
[9] = wheat (cultivar Yuma), sprayed at 100 ppm, control of fungal infection vs untreated plants
[10] = wheat plants sprayed at 100 ppm, control vs untreated plants

Molecule | melting point | pest or weed control at 100 ppm (Erysiphe graminis—ERYSGT) [%] | pest or weed control at 100 ppm [8] [%] | USTIMA in vitro Growth Inhibition (Ustilago maydis (USTIMA)) | RHIZSO in vitro Growth Inhibition [7] | pest or weed control at 100 ppm (Septoria tritici—SEPTTR; [10]) [%] | pest or weed control at 100 ppm [4, 10] [%] | pest or weed control at 100 ppm [5, 10] [%] | further results
Cc1ccnc(C(=O)NC2C(=O)OC(=O)[C@H](Cc3ccccc3)[C@@H](OC(=O)C(C)C)[C@H](C)OC2=O)c1O (some centres unmarked) [Compound 237] | 122 to 134 °C | < 25 | < 25 |  |  |  |  |  | inhibition of growth at 25 µg/mL ([1]; Phytophthora infestans, read-out: PHYTIN in vitro Growth Inhibition): < 80%; pest or weed control at 100 ppm (Septoria tritici—SEPTTR; [9]): 25 to 74%; inhibition of growth ([2]; Leptosphaeria, in vitro fungal growth): < 80%; inhibition of growth ([3]; Zymoseptoria tritici, in vitro fungal growth): < 80%; pest or weed control at 100 ppm [4, 9]: 75 to 100%; inhibition of growth at 25 µg/mL (Ustilago maydis (USTIMA); Mycosarcoma maydis, read-out: USTIMA in vitro Growth Inhibition): < 80%; pest or weed control at 100 ppm [5, 9]: 25 to 74%; inhibition of growth at 25 µg/mL ([6]; Pyricularia oryzae, read-out: PYRIOR in vitro Growth Inhibition): < 80%; inhibition of growth at 25 µg/mL ([7]; Rhizoctonia solani, read-out: RHIZSO in vitro Growth Inhibition): < 80%
COc1ccnc(C(=O)NC2CC(C)(C)C(OC(=O)c3cccc(Cl)n3)C(C)(C)C2)c1O (centres unmarked) [Compound 269] | 55 to 56 °C |  |  | − (key: +: at least 80% growth inhibition; −: less than 80% growth inhibition) | − (key: +: at least 80% growth inhibition; −: less than 80% growth inhibition) |  |  |  | 
COc1ccnc(C(=O)Nc2cccc(CC3CC(C)(C)OC(C)(C)C3)c2)c1O [Compound 460] | 149 to 153 °C | 25 to 74 | < 25 |  |  | 25 to 74 | 25 to 74 | 25 to 74 | 
CC(C)C(=O)O[C@H]1[C@H](C)OC(=O)[C@@H](NC(=O)c2cccnc2O)COC(=O)[C@@H]1Cc1ccccc1 [Compound 523] | 188 to 190 °C (dec.) | 25 to 74 | 25 to 74 |  |  | 25 to 74 | 25 to 74 | 75 to 100 | 
CC1(C)CC(NC(=O)c2ccnnc2O)CC(C)(C)C1 [Compound 539] | 263 to 265 °C | < 25 | < 25 |  |  | 25 to 74 | 25 to 74 | 25 to 74 | 
N-(3-Hydroxy-4-Methoxy-2-Pyridylcarbonyl)-2-Amino-2-Deoxy-alpha-D-Glucopyranose [Compound 334] |  |  |  | − (key: +: at least 80% growth inhibition; −: less than 80% growth inhibition) | − (key: +: at least 80% growth inhibition; −: less than 80% growth inhibition) |  |  |  | PHYTIN in vitro Growth Inhibition ([1]; in vitro fungal growth): − (less than 80% growth inhibition); SEPTTR in vivo 1 Day Protectant (Septoria tritici—SEPTTR; [9]): − (<25% control of fungal infection); LEPTNO in vitro Growth Inhibition [2]: − (key: +: at least 80% growth inhibition; −: less than 80% growth inhibition); SEPTTR in vitro Growth Inhibition [3]: − (key: +: at least 80% growth inhibition; −: less than 80% growth inhibition); PUCCRT in vivo 1 Day Protectant [4, 9]: − (<25% control of fungal infection); ERYSGT in vivo 1 Day Protectant (Erysiphe graminis—ERYSGT; wheat (cultivar Monon), sprayed at 100 ppm, inoculated after 24 hours, control of fungal infection vs untreated plants): − (<25% control of fungal infection); LEPTNO in vivo 1 Day Protectant [5, 9]: + (25-74% control of fungal infection); PYRIOR in vitro Growth Inhibition ([6]; in vitro fungal growth): − (less than 80% growth inhibition); PHYTIN in vivo 1 Day Protectant ([8]; tomato (cultivar Rutgers), sprayed at 100 ppm, inoculated after 24 hours, control of fungal infection vs untreated plants): − (<25% control of fungal infection)
